Assays:
[1] = Determination of LC Log P (experimental); format: physicochemical; conditions: diacylhydrazine log P standards (log P known experimentally)
Procedure: Liquid chromatography retention times (RT) are measured for each substance using the conditions described below. A linear equation is derived relating RT to log P is developed from the data for the log P standards. The log P for the test compound is calculated from the log P/retention time equation.

[2] = Partition coefficient Log (D), 1-octanol / pH 7.4 buffer; format: physicochemical; conditions: for Log(D) Octanol/pH 7.4: water-saturated 1-octanol / pH 7.4 buffer, room temperature
Procedure: The partition coefficient, Log (D), between water-saturated 1-octanol and pH 7.4 buffer was determined for the test compounds. The buffer was prepared as described in section 2. A 12 μl aliquot of a 10 mM stock solution in DMSO was introduced to a vial containing 0.60 mL of octanol and 0.60 mL of buffer at room temperature. Testosterone was also added to a final concentration of 100 μM as an internal control. The solution was vortexed for 60 minutes and centrifuged at 10,000 rpm for 10 minutes. The organic and aqueous layers were removed. Serial dilutions of the organic layer were made with 50% methanol except for the initial dilution, which was made in 100% methanol. Serial dilutions of the aqueous layer were made in the pH 7.4 buffer. The diluted samples were then assayed by LC/MS for the compound as well as for testosterone. The Log of the ratio of peak area responses was calculated to obtain the Log (D). Typical Log D values for testosterone are from 3.0-3.3.

Caco-2 monolayers = assay: Bi-directional permeability, CACO-2; format: in vitro ADME
Procedure: (§1) Caco-2 monolayers were grown to confluence on collagen-coated, microporous, polycarbonate membranes in 12-well Costar Transwell plates. Details of the plates and their certification are shown below. The permeability assay buffer was Hank's Balanced Salt Solution containing 10 mM HEPES and 15 mM glucose at a pH of 7.0±0.2. The dosing solution concentration was 10 μM in assay buffer. At each time point, 1 and 2 hours, a 200-μL aliquot was taken from the receiver chamber and replaced with fresh assay buffer. Cells were dosed on the apical side (A-to-B) or basolateral side (B-to-A) and incubated at 37° C. with 5% CO2 and 90% relative humidity. Each determination was performed in duplicate. The important experimental parameters are outlined below. Permeability through a cell-free (blank) membrane was studied to determine non-specific binding and free diffusion of the compound through the device. Lucifer yellow flux was also measured for each monolayer after being subjected to the test compounds to ensure no damage was inflicted to the cell monolayers during the flux period.
(§2) All samples were assayed by LC/MS using electrospray ionization. Typical LC/MS conditions are as follows:
(§3) dCr/dt is the cumulative concentration in the receiver compartment versus time in M s^−1.
(§4) Vr is the volume of the receiver compartment in cm^3.
(§5) Vd is the volume of the donor compartment in cm^3.
(§6) A is the area of the cell monolayer (1.13 cm^2 for 12-well Transwell).
(§7) C0 is the concentration of the dosing solution in M.
(§8) Cr^final is the cumulative receiver concentration in M at the end of the incubation period.
(§9) Cd^final is the concentration of the donor in M at the end of the incubation period.

[3] = target: T1, Bombyx mori EcR (VP16 fusion, CVBE switch construct) (Bombyx mori, UniProt P49881); assay: Z3 Assay (HEK-293 cells with CVBE and 6XEcRE LacZ, β-galactosidase reporter)
T1 sequence (P49881 86-606): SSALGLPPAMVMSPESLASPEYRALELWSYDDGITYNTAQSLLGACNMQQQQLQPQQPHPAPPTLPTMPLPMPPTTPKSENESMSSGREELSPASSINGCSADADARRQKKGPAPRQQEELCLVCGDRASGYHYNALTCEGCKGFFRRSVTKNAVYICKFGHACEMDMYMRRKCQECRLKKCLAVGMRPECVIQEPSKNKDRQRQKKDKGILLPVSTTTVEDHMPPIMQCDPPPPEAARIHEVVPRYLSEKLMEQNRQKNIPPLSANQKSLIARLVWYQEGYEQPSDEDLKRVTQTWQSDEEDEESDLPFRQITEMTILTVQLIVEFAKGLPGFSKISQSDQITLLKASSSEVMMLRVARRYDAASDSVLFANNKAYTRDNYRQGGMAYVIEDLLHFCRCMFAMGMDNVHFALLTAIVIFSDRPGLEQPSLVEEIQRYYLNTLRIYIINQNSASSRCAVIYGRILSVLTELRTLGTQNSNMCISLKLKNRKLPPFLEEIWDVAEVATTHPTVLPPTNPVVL
T1 sequence (P19793 1-462 partner): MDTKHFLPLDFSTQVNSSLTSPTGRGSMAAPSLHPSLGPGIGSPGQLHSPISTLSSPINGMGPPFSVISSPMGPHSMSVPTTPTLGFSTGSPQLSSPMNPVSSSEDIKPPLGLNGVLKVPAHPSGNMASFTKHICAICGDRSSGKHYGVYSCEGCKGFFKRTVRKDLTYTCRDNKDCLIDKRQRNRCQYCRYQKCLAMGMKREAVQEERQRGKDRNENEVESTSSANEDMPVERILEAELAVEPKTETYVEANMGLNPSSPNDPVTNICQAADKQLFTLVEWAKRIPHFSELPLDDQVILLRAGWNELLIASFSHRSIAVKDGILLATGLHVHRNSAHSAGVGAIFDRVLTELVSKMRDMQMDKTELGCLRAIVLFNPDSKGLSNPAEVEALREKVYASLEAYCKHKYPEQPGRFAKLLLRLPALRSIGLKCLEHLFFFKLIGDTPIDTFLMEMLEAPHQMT

[4] = Aqueous equilibrium solubility in pH 7.4 buffer; conditions: pH 7.4 aqueous buffer, room temperature, equilibrium
[5] = target: GAL4 DBD (1-147)-CfEcR(DEF)/VP16AD-βRXREF-LmUSPEF (Choristoneura fumiferana, UniProt O77240); assay: cell-based
[6] = system: mutated ecdysone receptor-based gene switch; assay: In vivo SEAP induction, ligand by IP injection; design: species or system C57BL/6 mouse; conditions: IP 26 nmol ligand
Procedure: Applicants' ligands are useful in various applications including gene therapy, expression of proteins of interest in host cells, production of transgenic organisms, and cell-based assays. In vivo induction of a reporter enzyme with various ligands of the present invention was evaluated in a C57BL/6 mouse model system containing a gene switch.
Each element of the gene switch was on a separate plasmid. Receptor expression was under the control of a CMV promoter (SEQ ID NO: 15). Induction was evaluated by the amount of reporter protein expressed in the presence of ligand.
SEAP expression in serum of mice was evaluated after electroporation of the gene switch into mouse quadriceps. Mice were anesthetized with 2 μL/g of a mixture of ketamine (100 mg/mL) and xylazine (20 mg/mL). Animals were then shaved, DNA vectors injected into the muscle in a volume of 2×50 μL polyglutamic acid (12 mg/mL water), electrode conductivity gel applied, and an electrode caliber (1 cm×1 cm; model 384) was placed on hind leg. The muscle was electroporated with 200 V/cm, 8 times, for 20 msec/pulse, at 1 sec time intervals. The transverse electrical field direction was reversed after the animals received half of the pulses. Electroporation was performed with an ECM 830 electroporator from BTX Molecular Delivery Systems.
In some experiments mice received an intraperitoneal injection (IP) of 2.6 μmol of ligand in 50 μL of DMSO 3 days after electroporation of the gene switch. In other experiments the concentration of ligand was decrease to 26 nmol/50 μL of DMSO/mouse. SEAP expression was evaluated 2-11 days after ligand administration. In other experiments ligand was administered in rodent chow. The chow was prepared by dissolving 2 g of ligand in 20 mL of acetone and adding it to 1 kg of LabDiet 5010 autoclavable chow from Purina Mills. This was thoroughly mixed in a Hobart mixer and then mixed for an additional 15 min in a Cross Blend mixer. Animals received chow ad libitum for 1, 2, or 3 days. All values are the average from four animals. Background SEAP in sera from animals treated with vector alone without ligand addition was 0-11 ng/mL serum.
Mouse serum was obtained by centrifugation of blood acquired by retroorbital bleeding with a small glass capillary tube. SEAP quantification was determined using a Clontech Great Escape chemiluminescence kit and by comparison with the Clontech SEAP standard.
Table 9: In vivo evaluation of ligand-mediated induction of a mutated ecdysone receptor-based gene switch. SEAP expression in serum of mice was evaluated after electroporation of the gene expression cassettes into mouse quadriceps. Mice received an IP injection of 2.6 μmol of ligand 3 days after electroporation. SEAP expression was evaluated 2-11 days after ligand administration. Each dose group was composed of four animals. Percentage of GS™-E ligand induction was determined by averaging SEAP expression from four animals divided by the average SEAP expression induced with GS™-E ligand and then multiplying by 100.
Table 10: Induction of gene switch expression with low concentrations of ligand. SEAP expression in serum of mice was evaluated after electroporation of the gene expression cassettes into mouse quadriceps. Mice received an IP injection of 26 nmol of ligand or 130 nmol GS™-E ligand 3 days after electroporation. SEAP expression was evaluated 2-7 days after ligand administration. Values are the average from 4 animals.

[7] = Bi-directional permeability, CACO-2; format: in vitro ADME; conditions: human, Caco-2, Papp × 10^−6 cm/s (plate certification)
Procedure: as §1, §2, §3, §4, §5, §6, §7, §8, §9

Molecule: CCc1c(C(=O)NN(C(=O)c2ccc(F)cc2Cl)C(C)(C)C)ccc2c1OCOC2 [RG-115002, reference compound]
- logP [1]: 3.5

Molecule: CC(O)c1ccc(C(=O)NN(C(=O)c2cc(CO)cc(CO)c2)C(C)(C)C)cc1 (centres unmarked) [RG-100021]
- Log(D) Octanol/pH 7.4 [2]: 0.8
- Papp Blank (Caco-2 monolayers; Caco-2): 43.0 10^−6 cm/s
- Papp, A-to-B Avg (Caco-2 monolayers; Caco-2): 0.22 10^−6 cm/s
- Papp, A-to-B Rep. 1 (Caco-2 monolayers; Caco-2): 0.21 10^−6 cm/s
- Papp, A-to-B Rep. 2 (Caco-2 monolayers; Caco-2): 0.22 10^−6 cm/s
- Papp, B-to-A Avg (Caco-2 monolayers; Caco-2): 0.93 10^−6 cm/s
- Papp, B-to-A Rep. 1 (Caco-2 monolayers; Caco-2): 0.91 10^−6 cm/s
- Papp, B-to-A Rep. 2 (Caco-2 monolayers; Caco-2): 0.95 10^−6 cm/s
- Significant Efflux (Caco-2 monolayers; Caco-2): No
- Fold Induction, Z3 Assay, 33 uM ([3]; 33 uM ligand, ligand treated / DMSO treated cells, average of two wells): 1
- Solubility pH 7.4 [4]: ≧1.0 mg/mL

Molecule: CCc1ccc(C(=O)NN(C(=O)c2cc(Cl)cc(Cl)c2)C(C)(C)C)c(F)c1 [RG-115372, reference compound]
- logP [1]: 5.02

Molecule: Lucifer Yellow [reference compound]
- Papp × 10^−6 cm/s (plate certification) (Caco-2 monolayers; Caco-2 plate TW12, first certification column (seed date Jun. 11, 2002)): 0.14 10^−6 cm/s
- Papp × 10^−6 cm/s (plate certification) (Caco-2 monolayers; Caco-2 plate TW12, second certification column (seed date Jun. 18, 2002)): 0.12 10^−6 cm/s

Molecule: Cc1cc(C)cc(C(=O)N(NC(=O)c2cccc(O)c2C)C(C)(C)C)c1 [RG-102208, reference compound]
- logP [1]: 2.9

Molecule: C[C@]12CC[C@H]3[C@@H](CCC4=CC(=O)CC[C@@]43C)[C@@H]1CC[C@@H]2O [testosterone, Testosterone, reference compound]
- logD ([2]; internal control, octanol / pH 7.4 buffer, read-out: Typical Log D values): 3 to 3.3

Molecule: CCc1c(OC)cccc1C(=O)NN(C(=O)c1ccccc1[S+](C)[O-])C(C)(C)C (centres unmarked) [RG-115199]
- Log(D) Octanol/pH 7.4 [2]: 2.0
- Papp Blank (Caco-2 monolayers; Caco-2): 23.0 10^−6 cm/s
- Papp, A-to-B Avg (Caco-2 monolayers; Caco-2): 30.6 10^−6 cm/s
- Papp, A-to-B Rep. 1 (Caco-2 monolayers; Caco-2): 31.1 10^−6 cm/s
- Papp, A-to-B Rep. 2 (Caco-2 monolayers; Caco-2): 30.2 10^−6 cm/s
- Papp, B-to-A Avg (Caco-2 monolayers; Caco-2): 30.9 10^−6 cm/s
- Papp, B-to-A Rep. 1 (Caco-2 monolayers; Caco-2): 31.0 10^−6 cm/s
- Papp, B-to-A Rep. 2 (Caco-2 monolayers; Caco-2): 30.9 10^−6 cm/s
- Significant Efflux (Caco-2 monolayers; Caco-2): No
- Papp B-A / Papp A-B Ratio (Caco-2 monolayers; Caco-2 efflux ratio): 1.0
- Fold Induction, Z3 Assay, 3.3 uM ([3]; 3.3 uM ligand, ligand treated / DMSO treated cells, average of two wells): 349
- Z3 assay Rel Max FI ([3]; maximum fold induction at any concentration relative to that of GS-E ligand, HEK-293 Z3 cells): 0.734
- EC50 ([3]; read-out: Z3 assay EC50, HEK-293 Z3 cells, β-galactosidase reporter, average of two wells): 3.47 µM
- Solubility pH 7.4 [4]: 0.0064 mg/mL

Molecule: CCc1c(C(=O)NN(C(=O)c2cc(C)cc(C)c2)C(CC)C(C)(C)C)ccc2c1OCCO2 (centres unmarked) [RG-115858, 3,5-dimethyl-benzoic acid N′-(5-ethyl-2,3-dihydro-benzo[1,4]dioxine-6-carbonyl)-N-(1-ethyl-2,2-dimethyl-propyl)-hydrazide]
- EC50 [5]: 0.005 µM
- 27-63 assay Rel Max FI ([5]; maximum fold induction at any concentration relative to that of GS-E ligand, CHO 27-63 cells): 0.915
- fold induction at 33 µM ([5]; read-out: Fold Induction, 27-63 Assay, 33 uM): 182
- Secreted Alkaline Phosphatase Day 2 ([6]; day 2): 13,661 ng/ml mouse sera
- Secreted Alkaline Phosphatase Day 3 ([6]; day 3): 11,820 ng/ml mouse sera

Molecule: CC(C)NCC(O)COc1cccc2ccccc12 (centres unmarked) [Propranolol, reference compound]
- Papp [7]: 20 ×10⁻⁶ cm/s
- Papp × 10^−6 cm/s (plate certification) (Caco-2 monolayers; human, Caco-2): 19 10^−6 cm/s

From US9102648B1, “Bioavailable diacylhydrazine ligands for modulating the expression of exogenous genes via an ecdysone receptor complex” (Intrexon Corporation, priority 2003, dated 2015)
